From ChEMBL document CHEMBL4118037, “Lactone Derivatives Produced by a Phaeoacremonium sp., an Endophytic Fungus from Senna spectabilis” (J Nat Prod, 2017)

Columns and labels:
[1] = system: Cladosporium sphaerospermum; assay: Antifungal activity against Cladosporium sphaerospermum (Perzig) SPC 491 assessed as detection limit for activity by bioautographic method; format: functional
[2] = system: Cladosporium cladosporioides; assay: Antifungal activity against Cladosporium cladosporioides (Fresen) Vries SPC 140 assessed as detection limit for activity by bioautographic method; format: functional
[3] = system: HeLa; assay: Cytotoxicity against human HeLa cells assessed as reduction in cell viability by MTT assay; format: functional, cell-based

Compound: CCCCCCC[C@H]1OC2=C(C(=O)O[C@@H]2C)[C@@H](O)[C@@]1(C)O
- Activity [1]: 25 µg
- Activity [2]: 25 µg
- IC50 [3]: > 100 µM

Compound: CCCCCCC[C@H]1OC2=C(C(=O)O[C@@]2(C)O)[C@@H](O)[C@]1(C)O
- IC50 [3]: > 100 µM

Compound: CC[C@@]1(O)C(=O)OCc2c1cc1n(c2=O)Cc2cc3ccccc3nc2-1 [CAMPTOTHECIN]
- IC50 [3]: 0.12 µM

Compound: CCCCCCC[C@H]1OC2=C(C(=O)O[C@@H]2C)[C@@H](O)[C@]1(C)O
- Activity [1]: 5 µg
- Activity [2]: 5 µg
- IC50 [3]: 100 µM

Compound: CCCCCCC[C@H]1OC2=C(C(=O)[C@@H](C)O2)[C@@H](O)[C@]1(C)O
- Activity [1]: 5 µg
- Activity [2]: 5 µg
- IC50 [3]: 50 µM

Compound: NYSTATIN
- Activity [1]: 1 µg
- Activity [2]: 1 µg
